Data: patent publication US20240050428A1 (Cullgen (Shanghai), Inc., priority 2020, published 2024)
Like-named read-outs stand apart in the source and are kept apart here.

Experiments:
[1] = test system: MV4;11 cells; test: Cell viability assay (CellTiter-Glo) in MV4;11 cells, alone or with gilteritinib; assay type: cell-based; conditions: Homo sapiens, MV4-11, 72 h, read-out: MV4
[2] = test system: MOLM-13 cells; test: Cell viability assay (CellTiter-Glo) in MOLM-13 cells, alone or with gilteritinib; assay type: cell-based; conditions: Homo sapiens, MOLM-13, 72 h
[3] = MV4;11 cells, with 10 nM gilteritinib, 3 days, CellTiter-Glo, 11 IC50 gilteritinib
[4] = MV4;11 cells, without gilteritinib, 3 days, CellTiter-Glo, 11 IC50
[5] = MOLM-13 cells, with 20 nM gilteritinib, 3 days, CellTiter-Glo, read-out: MOLM-13 IC50 gilteritinib
[6] = MOLM-13 cells, without gilteritinib, 3 days, CellTiter-Glo, read-out: MOLM-13 IC50
[7] = MV4;11 cells, compound alone (without gilteritinib), three days, CellTiter-Glo, 11 IC50
[8] = MV4;11 cells, with gilteritinib 10 nM, three days, CellTiter-Glo, 11 IC50 gilteritinib
[9] = MOLM-13 cells, compound alone (without gilteritinib), three days, CellTiter-Glo, read-out: MOLM-13 IC50
[10] = MOLM-13 cells, with gilteritinib 20 nM, three days, CellTiter-Glo, read-out: MOLM-13 IC50 gilteritinib

CN1CCN(C2CCN(C(=O)CCCCCNc3ccc4c(c3)C(=O)N(C3CCC(=O)NC3=O)C4=O)CC2)CC1 (centres unmarked) [GS-013, 2-(2,6-Dioxopiperidin-3-yl)-5-((6-(4-(4-methylpiperazin-1-yl)piperidin-1-yl)-6-oxohexyl)amino)isoindoline-1,3-dione]
IC50 [1, 3]: > 10 µM | IC50 [1, 4]: > 10 µM | IC50 [2, 5]: 1.85 µM | IC50 [2, 6]: > 10 µM

O=C1CCC(N2C(=O)c3ccc(NCCCCCC(=O)N4CCC(c5ncccn5)CC4)cc3C2=O)C(=O)N1 (centres unmarked) [GS-014, 2-(2,6-Dioxopiperidin-3-yl)-5-((6-oxo-6-(4-(pyrimidin-2-yl)piperidin-1-yl)hexyl)amino)isoindoline-1,3-dione]
IC50 [1, 3]: 0.0083 µM | IC50 [1, 4]: 0.071 µM | IC50 [2, 5]: 0.01 µM | IC50 [2, 6]: 0.107 µM

O=C1CCC(N2C(=O)c3ccc(NCCCCCC(=O)N4CCC(N5CCC(c6cnc7ccccc7n6)C5)CC4)cc3C2=O)C(=O)N1 (centres unmarked) [GS-015, 2-(2,6-Dioxopiperidin-3-yl)-5-((6-oxo-6-(4-(3-(quinoxalin-2-yl)pyrrolidin-1-yl)piperidin-1-yl)hexyl)amino)isoindoline-1,3-dione]
IC50 [1, 3]: 2.78 µM | IC50 [1, 4]: > 10 µM | IC50 [2, 5]: 0.03 µM | IC50 [2, 6]: > 10 µM

Cc1ccccc1C(=O)N1CCN(C(=O)CCCCCNc2ccc3c(c2)C(=O)N(C2CCC(=O)NC2=O)C3=O)CC1 (centres unmarked) [GS-016, 2-(2,6-Dioxopiperidin-3-yl)-5-((6-(4-(2-methylbenzoyl)piperazin-1-yl)-6-oxohexyl)amino)isoindoline-1,3-dione]
IC50 [1, 3]: > 10 µM | IC50 [1, 4]: > 10 µM | IC50 [2, 5]: 0.086 µM | IC50 [2, 6]: > 10 µM

O=C1CCC(N2C(=O)c3ccc(NCCCCCC(=O)N4CCC(c5ccccn5)CC4)cc3C2=O)C(=O)N1 (centres unmarked) [GS-017, 2-(2,6-Dioxopiperidin-3-yl)-5-((6-oxo-6-(4-(pyridin-2-yl)piperidin-1-yl)hexyl)amino)isoindoline-1,3-dione]
IC50 [1, 3]: 0.002 µM | IC50 [1, 4]: 0.02 µM | IC50 [2, 5]: 0.002 µM | IC50 [2, 6]: 0.03 µM

O=C1CCC(N2Cc3cc(OCCOCCC(=O)N4CCC(n5cc(-c6cnc7cccc(Br)c7n6)cn5)CC4)ccc3C2=O)C(=O)N1 (centres unmarked) [GS-018, 3-(5-(2-(3-(4-(4-(8-Bromoquinoxalin-2-yl)-1H-pyrazol-1-yl)piperidin-1-yl)-3-oxopropoxy)ethoxy)-1-oxoisoindolin-2-yl)piperidine-2,6-dione]
IC50 [1, 3]: 0.0009 µM | IC50 [1, 4]: 0.0087 µM | IC50 [2, 5]: 0.0016 µM | IC50 [2, 6]: 0.0156 µM

O=C1CCC(N2C(=O)c3ccc(NCCCCCC(=O)N4CCN(c5ccccn5)CC4)cc3C2=O)C(=O)N1 (centres unmarked) [GS-019, 2-(2,6-Dioxopiperidin-3-yl)-5-((6-oxo-6-(4-(pyridin-2-yl)piperazin-1-yl)hexyl)amino)isoindoline-1,3-dione]
IC50 ([1]; 11 IC50): 0.162 µM | IC50 ([1]; 11 IC50 gilteritinib): 0.0094 µM | IC50 ([2]; read-out: MOLM-13 IC50): 0.146 µM | IC50 ([2]; read-out: MOLM-13 IC50 gilteritinib): 0.007 µM

O=C1CCC(N2Cc3cc(NC(=O)CCCCC(=O)N4CCC(n5cc(-c6cnc7cccc(Br)c7n6)cn5)CC4)ccc3C2=O)C(=O)N1 (centres unmarked) [GS-020, 6-(4-(4-(8-Bromoquinoxalin-2-yl)-1H-pyrazol-1-yl)piperidin-1-yl)-N-(2-(2,6-dioxopiperidin-3-yl)-1-oxoisoindolin-5-yl)-6-oxohexanamide]
IC50 [1, 3]: 0.003 µM | IC50 [1, 4]: 0.029 µM | IC50 [2, 5]: 0.011 µM | IC50 [2, 6]: 0.087 µM

O=C(CCCC(=O)N1CCC(n2cc(-c3cnc4cccc(Br)c4n3)cn2)CC1)NCc1ccc2c(c1)CN(C1CCC(=O)NC1=O)C2=O (centres unmarked) [GS-021, 5-(4-(4-(8-Bromoquinoxalin-2-yl)-1H-pyrazol-1-yl)piperidin-1-yl)-N-((2-(2,6-dioxopiperidin-3-yl)-1-oxoisoindolin-5-yl)methyl)-5-oxopentanamide]
IC50 [1, 3]: 0.044 µM | IC50 [1, 4]: 3.13 µM | IC50 [2, 5]: 0.111 µM | IC50 [2, 6]: 0.082 µM

O=C(COc1ccc2c(c1)CN(C1CCC(=O)NC1=O)C2=O)NCCC(=O)N1CCC(n2cc(-c3cnc4cccc(Br)c4n3)cn2)CC1 (centres unmarked) [GS-022, N-(3-(4-(4-(8-bromoquinoxalin-2-yl)-1H-pyrazol-1-yl)piperidin-1-yl)-3-oxopropyl)-2-((2-(2,6-dioxopiperidin-3-yl)-1-oxoisoindolin-5-yl)oxy)acetamide]
IC50 [1, 3]: 0.06 µM | IC50 [1, 4]: 0.293 µM | IC50 [2, 5]: 0.106 µM | IC50 [2, 6]: 0.875 µM

O=C1CCC(N2Cc3c(Nc4ccnc(Nc5cccc(N6CCC(n7cc(-c8cnc9ccccc9n8)cn7)CC6)c5)n4)cccc3C2=O)C(=O)N1 (centres unmarked) [GS-025, 3-(1-Oxo-4-((2-((3-(4-(4-(quinoxalin-2-yl)-1H-pyrazol-1-yl)piperidin-1-yl)phenyl)amino)pyrimidin-4-yl)amino)isoindolin-2-yl)piperidine-2,6-dione]
IC50 [1, 7]: 0.01 to 0.1 µM | IC50 [1, 8]: < 0.01 µM | IC50 [2, 9]: < 0.01 µM | IC50 [2, 10]: < 0.01 µM

O=C1CCC(N2Cc3c(Nc4ccnc(Nc5ccc(N6CCC(n7cc(-c8cnc9cccc(Br)c9n8)cn7)CC6)cc5)n4)cccc3C2=O)C(=O)N1 (centres unmarked) [GS-026, 3-(4-((2-((4-(4-(4-(8-Bromoquinoxalin-2-yl)-1H-pyrazol-1-yl)piperidin-1-yl)phenyl)amino)pyrimidin-4-yl)amino)-1-oxoisoindolin-2-yl)piperidine-2,6-dione]
IC50 [1, 7]: > 1 µM | IC50 [1, 8]: > 1 µM | IC50 [2, 9]: > 1 µM | IC50 [2, 10]: > 1 µM

O=C1CCC(N2Cc3c(Nc4ccnc(Nc5ccc(N6CCC(n7cc(-c8cnc9ccccc9n8)cn7)CC6)cc5)n4)cccc3C2=O)C(=O)N1 (centres unmarked) [GS-027, 3-(1-Oxo-4-((2-((4-(4-(4-(quinoxalin-2-yl)-1H-pyrazol-1-yl)piperidin-1-yl)phenyl)amino)pyrimidin-4-yl)amino)isoindolin-2-yl)piperidine-2,6-dione]
IC50 [1, 7]: > 1 µM | IC50 [1, 8]: > 1 µM | IC50 [2, 9]: 0.1 to 1 µM | IC50 [2, 10]: > 1 µM

O=C1CCC(N2Cc3c(Nc4ccnc(Nc5cccc(CN6CCC(n7cc(-c8cnc9cccc(Br)c9n8)cn7)CC6)c5)n4)cccc3C2=O)C(=O)N1 (centres unmarked) [GS-028, 3-(4-((2-((3-((4-(4-(8-Bromoquinoxalin-2-yl)-1H-pyrazol-1-yl)piperidin-1-yl)methyl)phenyl)amino)pyrimidin-4-yl)amino)-1-oxoisoindolin-2-yl)piperidine-2,6-dione]
IC50 [1, 7]: 0.01 to 0.1 µM | IC50 [1, 8]: 0.01 to 0.1 µM | IC50 [2, 9]: 0.1 to 1 µM | IC50 [2, 10]: 0.01 to 0.1 µM

O=C1CCC(N2Cc3c(Nc4ccnc(Nc5cccc(CN6CCC(n7cc(-c8cnc9ccccc9n8)cn7)CC6)c5)n4)cccc3C2=O)C(=O)N1 (centres unmarked) [GS-029, 3-(1-Oxo-4-((2-((3-((4-(4-(quinoxalin-2-yl)-1H-pyrazol-1-yl)piperidin-1-yl)methyl)phenyl)amino)pyrimidin-4-yl)amino)isoindolin-2-yl)piperidine-2,6-dione]
IC50 [1, 7]: > 1 µM | IC50 [1, 8]: > 1 µM | IC50 [2, 9]: > 1 µM | IC50 [2, 10]: > 1 µM

O=C1CCC(N2Cc3c(Nc4ccnc(Nc5ccc(CN6CCC(n7cc(-c8cnc9cccc(Br)c9n8)cn7)CC6)cc5)n4)cccc3C2=O)C(=O)N1 (centres unmarked) [GS-030, 3-(4-((2-((4-((4-(4-(8-Bromoquinoxalin-2-yl)-1H-pyrazol-1-yl)piperidin-1-yl)methyl)phenyl)amino)pyrimidin-4-yl)amino)-1-oxoisoindolin-2-yl)piperidine-2,6-dione]
IC50 [1, 7]: > 1 µM | IC50 [1, 8]: > 1 µM | IC50 [2, 9]: > 1 µM | IC50 [2, 10]: > 1 µM

O=C1CCC(N2Cc3c(Nc4ccnc(Nc5ccc(CN6CCC(n7cc(-c8cnc9ccccc9n8)cn7)CC6)cc5)n4)cccc3C2=O)C(=O)N1 (centres unmarked) [GS-031, 3-(1-Oxo-4-((2-((4-((4-(4-(quinoxalin-2-yl)-1H-pyrazol-1-yl)piperidin-1-yl)methyl)phenyl)amino)pyrimidin-4-yl)amino)isoindolin-2-yl)piperidine-2,6-dione]
IC50 [1, 7]: 0.01 to 0.1 µM | IC50 [1, 8]: < 0.01 µM | IC50 [2, 9]: 0.01 to 0.1 µM | IC50 [2, 10]: 0.01 to 0.1 µM

O=C1CCC(N2C(=O)c3ccc(NCCCCCC(=O)N4CCC(n5cc(-c6cnc7cccc(N8CCOCC8)c7n6)cn5)CC4)cc3C2=O)C(=O)N1 (centres unmarked) [GS-034, 2-(2,6-Dioxopiperidin-3-yl)-5-((6-(4-(4-(8-morpholinoquinoxalin-2-yl)-1H-pyrazol-1-yl)piperidin-1-yl)-6-oxohexyl)amino)isoindoline-1,3-dione]
IC50 [1, 7]: 0.1 to 1 µM | IC50 [1, 8]: < 0.01 µM | IC50 [2, 9]: > 1 µM | IC50 [2, 10]: < 0.01 µM

O=C1CCC(N2C(=O)c3ccc(NCCCCCC(=O)N4CCC(n5cc(-c6cnc7cccc(N8CCNCC8)c7n6)cn5)CC4)cc3C2=O)C(=O)N1 (centres unmarked) [GS-035, 2-(2,6-Dioxopiperidin-3-yl)-5-((6-oxo-6-(4-(4-(8-(piperazin-1-yl)quinoxalin-2-yl)-1H-pyrazol-1-yl)piperidin-1-yl)hexyl)amino)isoindoline-1,3-dione]
IC50 [1, 7]: 0.01 to 0.1 µM | IC50 [1, 8]: < 0.01 µM | IC50 [2, 9]: > 1 µM | IC50 [2, 10]: < 0.01 µM

CN1CCN(c2cccc3ncc(-c4cnn(C5CCN(C(=O)CCCCCNc6ccc7c(c6)C(=O)N(C6CCC(=O)NC6=O)C7=O)CC5)c4)nc23)CC1 (centres unmarked) [GS-036, 2-(2,6-Dioxopiperidin-3-yl)-5-((6-(4-(4-(8-(4-methylpiperazin-1-yl)quinoxalin-2-yl)-1H-pyrazol-1-yl)piperidin-1-yl)-6-oxohexyl)amino)isoindoline-1,3-dione]
IC50 [1, 7]: > 1 µM | IC50 [1, 8]: < 0.01 µM | IC50 [2, 9]: > 1 µM | IC50 [2, 10]: 0.01 to 0.1 µM
